Measured values as given in ChEMBL document CHEMBL5042473 (J Med Chem, 2022).
Each block holds one compound with its values, some of them ahead of it.

Legend:
[1] = target: Mitogen-activated protein kinase 14 (Homo sapiens, UniProt Q16539); test: Inhibition of human p38 MAPK alpha incubated for 1 hr by photometric method
[2] = Metabolic stability in human liver microsomes assessed as parent compound remaining incubated for 120 mins; assay type: ADME, Microsome; settings: read-out: Stability
[3] = Ratio of drug concentration in RjOrl:Swiss (CD-1) mouse brain to plasma at 10mg/kg, iv administered measured after 2 hrs by LC-MS/MS analysis; assay type: ADME, organism-based; settings: brain and plasma, read-out: BPR
[4] = Drug uptake in mouse C57BL/6 brain at 0.4 mg/kg,po measured upto 240 mins by LC-MS/MS analysis; assay type: ADME, organism-based; settings: in vivo, 4 h
[5] = Drug uptake in mouse C57BL/6 brain at 0.4 mg/kg,iv measured upto 240 mins by LC-MS/MS analysis; assay type: ADME, organism-based; settings: in vivo, 4 h
Blood = test: Antiinflammatory activity against LPS-stimulated C57BL/6 mouse whole blood assessed as reduction in TNF-alpha at 1 nM incubated for 24 hrs by ELISA based method; assay type: functional; design: scale not given: the % may be the effect or the level left
[6] = Cytotoxicity against Balb/c mouse splenocytes assessed as metabolic activity at 100 nM incubated for 24 hrs by MTT assay relative to LPS-stimulated splenocytes; assay type: toxicity, cell-based, Splenocyte; settings: read-out: Activity
Splenocyte = test: Cytotoxicity against Balb/c mouse splenocytes assessed as metabolic activity at 1 to 10 nM incubated for 24 hrs by MTT assay; assay type: toxicity, cell-based; settings: 0.01 µM, dose 1-10 nM
[7] = Drug uptake in RjOrl:Swiss (CD-1) mouse brain at 10 mg/kg, iv administered measured after 2 hrs by LC-MS/MS analysis; assay type: ADME, organism-based; settings: read-out: Ct

Chain of Mitogen-activated protein kinase 14 (Q16539 whole entry): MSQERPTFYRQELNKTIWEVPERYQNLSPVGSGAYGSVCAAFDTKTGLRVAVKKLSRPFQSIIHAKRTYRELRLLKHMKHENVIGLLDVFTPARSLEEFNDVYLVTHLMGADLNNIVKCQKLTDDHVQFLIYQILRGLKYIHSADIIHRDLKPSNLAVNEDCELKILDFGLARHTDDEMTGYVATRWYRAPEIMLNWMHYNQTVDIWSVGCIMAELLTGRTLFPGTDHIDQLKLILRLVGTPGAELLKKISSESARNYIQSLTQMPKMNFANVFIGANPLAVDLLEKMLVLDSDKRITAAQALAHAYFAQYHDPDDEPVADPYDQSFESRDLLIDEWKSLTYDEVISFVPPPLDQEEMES

IC50 [1]: 3.5 nM
Compound: O=C(NCC(F)(F)F)c1ccc2c(c1)C(=O)c1ccc(Nc3ccc(F)cc3F)cc1CC2

IC50 [1]: 12 nM
remaining at 2 h [2]: 0%
Compound: COC(=O)CNC(=O)c1ccc2c(c1)C(=O)c1ccc(Nc3ccc(F)cc3F)cc1CC2

IC50 [1]: 8 nM
remaining at 2 h [2]: 93%
Compound: O=C(O)CC[C@H](NC(=O)c1ccc2c(c1)C(=O)c1ccc(Nc3ccc(F)cc3F)cc1CC2)C(=O)O

IC50 [1]: 3 nM
remaining at 2 h [2]: 93%
Compound: COC(=O)[C@H](C)NC(=O)c1ccc2c(c1)C(=O)c1ccc(Nc3ccc(F)cc3F)cc1CC2

IC50 [1]: 21 nM
Compound: O=C(NCCc1ccc(F)cc1)c1ccc2c(c1)C(=O)c1ccc(Nc3ccc(F)cc3F)cc1CC2

IC50 [1]: 7.8 nM
Compound: O=C(NCCc1ccc(O)cc1)c1ccc2c(c1)C(=O)c1ccc(Nc3ccc(F)cc3F)cc1CC2

IC50 [1]: 390 nM
Compound: CCCCCCCCNC(=O)c1ccc2c(c1)C(=O)c1ccc(Nc3ccc(F)cc3F)cc1CC2

IC50 [1]: 1.2 nM
Compound: COC(=O)CC[C@H](NC(=O)c1ccc2c(c1)C(=O)c1ccc(Nc3ccc(F)cc3F)cc1CC2)C(=O)OC

IC50 [1]: 2.1 nM
Compound: COC(=O)[C@@H](N)CCCCNC(=O)c1ccc2c(c1)C(=O)c1ccc(Nc3ccc(F)cc3F)cc1CC2

IC50 [1]: 6.9 nM
Compound: COC(=O)[C@H](CCSC)NC(=O)c1ccc2c(c1)C(=O)c1ccc(Nc3ccc(F)cc3F)cc1CC2

The next lines start with the compound.

Compound: CC(C)(C)OC(=O)N1CCN(CCNC(=O)c2ccc3c(c2)C(=O)c2ccc(Nc4ccc(F)cc4F)cc2CC3)CC1
IC50 [1]: 2.4 nM

Compound: O=C1c2ccc(Nc3ccc(F)cc3F)cc2CCc2ccc(C(=O)N3CCCCC3)cc21
IC50 [1]: 120 nM

Compound: Nc1ccccc1Nc1ccc2c(c1)CCc1ccc(C(=O)NCCN3CCOCC3)cc1C2=O
IC50 [1]: 18 nM
Kp at 2 h [3]: 0.08
remaining at 2 h [2]: < 38%

Compound: Nc1ccccc1Nc1ccc2c(c1)CCc1ccc(C(=O)NCCc3ccccc3)cc1C2=O
IC50 [1]: 20 nM

Compound: O=C(NCCOCCO)c1ccc2c(c1)C(=O)c1ccc(Nc3ccc(F)cc3F)cc1CC2
Drug uptake [4]: Not Active
Drug uptake [5]: Not Active
Activity (Blood): 5%
IC50 [1]: 10 nM
viability at 24 h, 0.1 µM [6]: 66%
Activity (Splenocyte): Non-Toxic

Compound: CN(CCc1ccccc1)C(=O)c1ccc2c(c1)C(=O)c1ccc(Nc3ccc(F)cc3F)cc1CC2
IC50 [1]: 390 nM

Compound: Nc1ccccc1Nc1ccc2c(c1)CCc1ccc(C(=O)NCCO)cc1C2=O
IC50 [1]: 14 nM
remaining at 2 h [2]: 99%

Compound: CCCCCCCCCCCCCCCCNC(=O)c1ccc2c(c1)C(=O)c1ccc(Nc3ccc(F)cc3F)cc1CC2
IC50 [1]: > 1000 nM

Compound: Nc1ccccc1Nc1ccc2c(c1)CCc1ccc(C(=O)NC(CO)CO)cc1C2=O
IC50 [1]: 15 nM

Compound: CN(C)CCNC(=O)c1ccc2c(c1)C(=O)c1ccc(Nc3ccccc3N)cc1CC2
IC50 [1]: 8.4 nM
Kp at 2 h [3]: 0.59
remaining at 2 h [2]: 50%

Compound: O=C(NCCc1c[nH]c2ccccc12)c1ccc2c(c1)C(=O)c1ccc(Nc3ccc(F)cc3F)cc1CC2
IC50 [1]: 28 nM
remaining at 2 h [2]: 71%

Compound: CC(C)(C)OC(=O)N1CCN(CCNC(=O)c2ccc3c(c2)C(=O)c2ccc(Nc4ccccc4N)cc2CC3)CC1
IC50 [1]: 1.9 nM

Compound: O=C(N[C@@H]1[C@@H](O)[C@H](O)[C@@H](CO)O[C@H]1O)c1ccc2c(c1)C(=O)c1ccc(Nc3ccc(F)cc3F)cc1CC2
IC50 [1]: 5.2 nM
concentration at 2 h [7]: 5.9 ng/g
Kp at 2 h [3]: 0.09

Compound: O=C(NCCCc1ccccc1)c1ccc2c(c1)C(=O)c1ccc(Nc3ccc(F)cc3F)cc1CC2
IC50 [1]: 50 nM

Compound: NCCNC(=O)c1ccc2c(c1)C(=O)c1ccc(Nc3ccc(F)cc3F)cc1CC2
Drug uptake [4]: Not Active
Drug uptake [5]: Not Active
Activity (Blood): 5%
IC50 [1]: 2.5 nM
viability at 24 h, 0.1 µM [6]: 66%
Activity (Splenocyte): Non-Toxic

Compound: NC(=O)c1ccc2c(c1)C(=O)c1ccc(Nc3ccccc3N)cc1CC2
IC50 [1]: 6.1 nM

Compound: COC(=O)[C@@H](N)CCNC(=O)c1ccc2c(c1)C(=O)c1ccc(Nc3ccc(F)cc3F)cc1CC2
Drug uptake [4]: Not Active
Drug uptake [5]: Not Active
Activity (Blood): 5%
IC50 [1]: 2.3 nM
viability at 24 h, 0.1 µM [6]: 66%
Activity (Splenocyte): Non-Toxic
remaining at 2 h [2]: 6%

Compound: COC(=O)[C@H](CCSC)NC(=O)c1ccc2c(c1)C(=O)c1ccc(Nc3ccccc3N)cc1CC2
IC50 [1]: 13 nM
remaining at 2 h [2]: 0%
